One data set has as its system zebrafish embryos. Nature of the data set: Zebrafish toxicity analysis (lethality, MTD). The class given is in vivo.
A further data set concerns A549 lung cancer cells. Nature of the data set: Cell proliferation (MTT assay) in A549 lung cancer cells. It counts as cell-based, human. As to the method:
To gauge the ability of each complex to inhibit cancer cell growth, A549 lung cancer cells were treated with 1–3, 4[H][Cl], doxorubicin, and auranofin in a dose responsive manner. Cellular vitality (i.e., mitochondrial reductase activity) was then quantified colorimetrically post treatment using 3-(4,5-dimethylthiazol-2-yl)-2,5-diphenyltetrazolium bromide (MTT assay) (Table 2, Fig. 5).
Biological preparations and assays
Experimental compound preparation. Stock solutions of complexes 1–3, 4[H][Cl], auranofin (Tocris Bioscience 4600), and doxorubicin (Tocris Bioscience 2252) were dissolved in DMSO (2.5–10 mM, depending on the compound and its solubility), aliquoted, and stored at -80 °C prior to use.
Biological Materials and Cell Lines. Cell lines were obtained from the ATCC (A549 and PC-3) and Prof.
Zahid Siddik at M.D. Anderson Cancer Center (A2780 and A2780CP). Cell culture plastic ware (i.e. T-75 flasks, treated 6-well plates, treated 96-well plates, and cell scrapers) were obtained from Fisher Scientific. Cell were cultured in RPMI 1640 culture medium (+2mM glutamine, +25mM HEPES, Corning 10041cv) supplemented with 10% heat-inactivated fetal bovine serum (RMBIO FBS-BBT) and 1X penicillin-streptomycin (Sigma p4333). Unless otherwise noted, incubators were set to 37°C and 5% CO2.
Trypsin (HyClone SH30236.01) and 1X Phosphate Buffered Saline (HyClone SH30258.02, diluted in autoclaved deionized water) were utilized for general cell line maintenance and harvesting. Trace Metal […]
Cell Proliferation Studies. Cells were harvested and seeded into 96-well culture plates (Costar 07-200-90) in 100µL of culture media. They were allowed to incubate overnight at 37 °C in the presence of 5% CO2. […]
and PC-3 at 2000 cells/well. […]
were made. To each well of a 96 well plate was added 100 µL of the appropriate solution. After a total of three days, a […] aliquot of 3 mg/mL tetrazolium dye, 3-(4,5-dimethylthiazol-2-yl)-2,5-diphenyltetrazolium bromide (Alfa Aesar L11939) was added to each well, followed by a 4 hr incubation period at 37 °C. The medium was then removed, the resulting formazan was dissolved in […] DMSO and the respective absorbances were measured at 560–650 nm using a microplate reader (Molecular Devices, Sunnyvale, CA). Absorbance values were corrected for background and then normalized to wells containing untreated cells to allow for plate-to-plate comparisons. The data are shown as mean inhibition of proliferation or growth as a percentage of control cells and are from 2–3 replicate experiments. Resulting dose response curves were subjected to linear regression analysis (Origin by OriginLab, Inc.) for determination of IC50 values.

A short description of data set [1]: Differential pulse voltammetry, quinone reduction potentials. It counts as physicochemical. The conditions noted are these: DMSO, 0.1 M [N(nBu)4][PF6], 0.1 mM analyte, vs. SCE. The method, then: A series of electrochemical analyses, including cyclic voltammetry (CV) and differential pulse voltammetry (DPV), were carried out with [NnBu4][PF6] in anhydrous dimethyl sulfoxide (DMSO) in order to evaluate electronic properties of compounds 1–3 and 4[H][Cl]. […] These electrochemical features were attributed to the reduction of the quinone moiety to first produce the semiquinone radical (NQ^–) and then produce the quinone dianion (NQ^2–) forms of compounds 1–3 and 4[H][Cl].[70],[71] The quinone reduction potential in 4[H][Cl] occurs at –0.38 V, the lowest of all the molecules studied, indicative of a positively charged imidazolium ring. The quinone couple at –0.42 V observed for compound 1 is ascribed to the presence of bis(NHC). The same wave in compound 3 appears at a more negative potential (–0.47 V), presumably due to greater trans effects excreted by quinone annulated NHC ligand than the metal-bound chloride. This analysis agrees well with the differences in the observed δ^13C (Au–Ccarbene) resonances for compounds 1 and 3. […]
mM) as referenced to SCE (internal standard Fc0/+, adjusted to 0.435 V vs. SCE).

Molecules are shown by their SMILES. Where two headings read alike, the source gives them in different places.

The text below walks through data of article PMC5859730, “Dual targeting of the cancer antioxidant network with 1,4-naphthoquinone fused Gold(I) N-heterocyclic carbene complexes” (Chemical Science, 2017).

The term IC50 denotes the concentration at which inhibition is half-maximal. Compound `Cc1cc(C)c(-n2c3c(n(-c4c(C)cc(C)cc4C)[c]2=[Au-]=[c]2n(-c4c(C)cc(C)cc4C)c4c(n2-c2c(C)cc(C)cc2C)C(=O)c2ccccc2C4=O)C(=O)c2ccccc2C3=O)c(C)c1.[Cl][Ag-][Cl]` [Complex 1, [bis(1,3-dimesityl-4,5-naphthoquino-imidazol-2-ylidene)-gold(I)] [silver(I)dichloride]] yielded a Lethality in the data set with zebrafish embryos (zebrafish embryos, concentrations above 1 μM) of 100%. The “LC50 (50% lethal concentration)” value with zebrafish embryos (zebrafish embryos/larvae) was found to be 750 nM. The Mortality with zebrafish embryos (zebrafish larvae, 0.75 μM dose) is ~ 50%. The “Fold difference relative to 1” value in the data set on A549 lung cancer cells (A549, ratio of IC50 to that of 1 (Table 2)) came out at 1. Moreover, the IC50 turned out to be 73 nM in the data set on A549 lung cancer cells (A549 lung cancer cells, MTT, 72 h, read-out: IC50) and 73 ± 16 nM in the data set on A549 lung cancer cells (Table 3, error = standard error from the mean, read-out: IC50 A549 lung). For the same compound, in data set [1] (first reduction, semiquinone radical (NQ˙–)), the “E 1/2 a (V) DPV” value is “–0.42 V”. Further, the “E 1/2 b (V) DPV” value in data set [1] (second reduction, quinone dianion (NQ2–)) was “–1.31 V”.
